# From patent US9532990B2 (Zhejiang DTRM Biopharma Co. Ltd., priority 2014, dated 2017)
# Legend:
# [1] = Toxicokinetic (TK) study in rats, 28-day; type: in vivo, rat; conditions: for Cmax / Tmax / AUC(0-t): rat, in vivo; for AUC(0-t): read-out: AUC0-24 h
# [2] = system: TMD-8 cells; test: Inhibition assay of tumor cell activity (cell viability); type: cell-based, human; conditions: single agent, 48 hours, AVG
# Experimental: Inhibition Assay of Tumor Cell Activity:
# Tumor cells (TMD-8, DoHH2 and WSU-DLCL2) were transferred and attached to 96-well plates. After one night, blank buffer and selected concentrations (0.01 nM-100 μM) of the test compound solution were added. After 48 hours incubation, CellTiter-Go was added to lyse the cells. Recording luminescent signal and calculate the percent inhibition of cell viability.
# TMD-8 is a sensitive human diffuse large B-cell lymphoma cell line, and DoHH2 is a more difficult to treat human follicular lymphoma cell line, while WSU-DLCL2 is a multi-drug resistant (MDR) human non-Hodgkin's lymphoma cell line. Drug combination therapies provided better efficacies in all three tumor models than single targeted agent alone.
# [3] = Pharmacokinetic study in Beagle dogs; type: in vivo; conditions: dog, plasma
# Experimental: […] Each group has three animals. For group of intravenous administration, blood samples were collected at pre-dose, 0.033, 0.083, 0.25, 0.5, 1, 3, 6, 9, 24 h post-dose; for group of oral administration, blood samples were collected at pre-dose, 0.083, 0.25, 0.5, 1, 3, 6, 9, 24 h post-dose. After blood collection, HPLC-MS/MS was applied to determine plasma concentrations of the compound.
# [4] = Pharmacokinetic study in male SD rats; type: in vivo; conditions: rat, plasma
# Experimental: A pharmacokinetic study in male SD rats: Male SD rats for pharmacokinetic study within 24 hours were divided into two groups: intravenous administration and oral administration. Each group has three animals. For group of intravenous administration, blood samples were collected at pre-dose, 0.0833, 0.167, 0.5, 1, 2, 4, 8, 24 h post-dose; for group of oral administration, blood samples were collected at pre-dose, 0.167, 0.5, 1, 2, 4, 8, 24 h post-dose. After blood collection, HPLC-MS/MS was applied to determine plasma concentrations of the compound.
# [5] = system: TMD-8 lymphoma xenograft; test: TMD-8 lymphoma xenograft SCID mouse model; type: in vivo; conditions: BID; for Antitumor effect: Oral
# Experimental: Compounds (Compounds 45 and others) alone and its combinations were evaluated against tumor growth in xenograft models in female CB-17 SCID mice. The TMD-8, DoHH2, WSU-DLCL2 tumor cells were maintained in vitro as a suspension culture in RPMI-1640 medium supplemented with 10% heat inactivated fetal calf serum at 37° C. in an atmosphere of 5% CO2 in air. The tumor cells were routinely subcultured twice weekly. The cells growing in an exponential growth phase were harvested and counted for tumor inoculation. Each mouse was inoculated subcutaneously at the right flank with the tumor cells (10×10^6) in 0.2 ml of PBS with Matrigel (1:1) for tumor development. The treatments were started after the average tumor size reached approximately 100-200 mm^3. Each group consisted of 6-10 tumor-bearing mice. The testing article (vehicle, compound or combination) was orally administrated to the mice according to the predetermined doses for 14-days or 21-days. Animal body weight and tumor volume were measured every 2-or 3-days throughout the treatment.
# [6] = Toxicokinetic (TK) study in dogs, 28-day; type: in vivo, dog; conditions: for Cmax / Tmax / AUC(0-t): dog, in vivo; for AUC(0-t): read-out: AUC0-24 h
# [7] = female, 40 mg/kg, Study Day 1, Female
# [8] = female, 40 mg/kg, Study Day 28, Female
# [9] = female, 100 mg/kg, Study Day 1, Female
# [10] = female, 100 mg/kg, Study Day 28, Female
# [11] = female, 200 mg/kg, Study Day 1, Female
# [12] = female, 200 mg/kg, Study Day 28, Female
# [13] = male, 40 mg/kg, Study Day 1, Male
# [14] = male, 40 mg/kg, Study Day 28, Male
# [15] = male, 100 mg/kg, Study Day 1, Male
# [16] = male, 100 mg/kg, Study Day 28, Male
# [17] = male, 200 mg/kg, Study Day 1, Male
# [18] = male, 200 mg/kg, Study Day 28, Male
# [19] = IV, 2 mg/kg, mean, read-out: Vdss
# [20] = female, 15 mg/kg/day, Study Day 1, Female
# [21] = female, 15 mg/kg/day, Study Day 28, Female
# [22] = female, 45 mg/kg/day, Study Day 1, Female
# [23] = female, 45 mg/kg/day, Study Day 28, Female
# [24] = female, 105 mg/kg/day, Study Day 28, Female
# [25] = female, 150 mg/kg/day, Study Day 1, Female
# [26] = male, 15 mg/kg/day, Study Day 1, Male
# [27] = male, 15 mg/kg/day, Study Day 28, Male
# [28] = male, 45 mg/kg/day, Study Day 1, Male
# [29] = male, 45 mg/kg/day, Study Day 28, Male
# [30] = male, 105 mg/kg/day, Study Day 28, Male
# [31] = male, 150 mg/kg/day, Study Day 1, Male
smiles,measurement,setting,value
"C=CC(=O)N1CC[C@@H](n2nc(-c3ccc(Oc4c(F)c(F)cc(F)c4F)cc3F)c3c(N)ncnc32)C1 [Compound 45, 1-((R)-3-(4-amino-3-(2-fluoro-4-(2,3,5,6-tetrafluorophenoxy)phenyl)-1H-pyrazolo[3,4-d]pyrimidin-1-yl)pyrrolidin-1-yl)prop-2-en-1-one]",AUC compared with ibrutinib,[1]; TK data,significantly higher than that of ibrutinib
same,Cmax,[1]; [7],2660 ng/mL
same,Tmax,[1]; [7],1 h
same,AUC(0-t),[1]; [7],17300 ng·h/mL
same,Cmax,[1]; [8],2970 ng/mL
same,Tmax,[1]; [8],1 h
same,AUC(0-t),[1]; [8],17300 ng·h/mL
same,Cmax,[1]; [9],3700 ng/mL
same,Tmax,[1]; [9],4 h
same,AUC(0-t),[1]; [9],28900 ng·h/mL
same,Cmax,[1]; [10],3830 ng/mL
same,Tmax,[1]; [10],1 h
same,AUC(0-t),[1]; [10],29600 ng·h/mL
same,Cmax,[1]; [11],4680 ng/mL
same,Tmax,[1]; [11],4 h
same,AUC(0-t),[1]; [11],65200 ng·h/mL
same,Cmax,[1]; [12],5490 ng/mL
same,Tmax,[1]; [12],8 h
same,AUC(0-t),[1]; [12],60200 ng·h/mL
same,Cmax,[1]; [13],2160 ng/mL
same,Tmax,[1]; [13],2 h
same,AUC(0-t),[1]; [13],13700 ng·h/mL
same,Cmax,[1]; [14],2090 ng/mL
same,Tmax,[1]; [14],2 h
same,AUC(0-t),[1]; [14],15400 ng·h/mL
same,Cmax,[1]; [15],2740 ng/mL
same,Tmax,[1]; [15],2 h
same,AUC(0-t),[1]; [15],21700 ng·h/mL
same,Cmax,[1]; [16],3990 ng/mL
same,Tmax,[1]; [16],2 h
same,AUC(0-t),[1]; [16],30300 ng·h/mL
same,Cmax,[1]; [17],4220 ng/mL
same,Tmax,[1]; [17],2 h
same,AUC(0-t),[1]; [17],37600 ng·h/mL
same,Cmax,[1]; [18],4540 ng/mL
same,Tmax,[1]; [18],2 h
same,AUC(0-t),[1]; [18],45100 ng·h/mL
same,Inh % TMD-8 cell viability,[2]; 0.01 μM,51.66%
same,Inh % TMD-8 cell viability,[2]; 0.1 μM,52.40%
same,Inh % TMD-8 cell viability,[2]; 1 uM,55.05%
same,AUC(0-inf),"[3]; IV, 2 mg/kg, mean",987 ng·h/mL
same,AUC(0-t),"[3]; IV, 2 mg/kg, mean",977 ng·h/mL
same,C0,"[3]; IV, 2 mg/kg, mean",663 ng/mL
same,clearance,"[3]; IV, 2 mg/kg, mean",34.6 mL/min/kg
same,half-life,"[3]; IV, 2 mg/kg, mean",2.27 h
same,Vd,[3]; [19],4.24 L/kg
same,bioavailability,"[3]; PO, 5 mg/kg",26.2%
same,AUC(0-inf),"[3]; PO, 5 mg/kg, mean",574 ng·h/mL
same,AUC(0-t),"[3]; PO, 5 mg/kg, mean",650 ng·h/mL
same,Cmax,"[3]; PO, 5 mg/kg, mean",189 ng/mL
same,Tmax,"[3]; PO, 5 mg/kg, mean",1.17 h
same,half-life,"[3]; PO, 5 mg/kg, mean",2.92 h
same,AUC(0-inf),"[4]; IV, 2 mg/kg, mean",1740 ng·h/mL
same,AUC(0-t),"[4]; IV, 2 mg/kg, mean",1740 ng·h/mL
same,C0,"[4]; IV, 2 mg/kg, mean",1390 ng/mL
same,clearance,"[4]; IV, 2 mg/kg, mean",20.2 mL/min/kg
same,half-life,"[4]; IV, 2 mg/kg, mean",0.787 h
same,Vd,[4]; [19],1.61 L/kg
same,bioavailability,"[4]; PO, 10 mg/kg",37.1%
same,AUC(0-inf),"[4]; PO, 10 mg/kg, mean",3260 ng·h/mL
same,AUC(0-t),"[4]; PO, 10 mg/kg, mean",3230 ng·h/mL
same,Cmax,"[4]; PO, 10 mg/kg, mean",641 ng/mL
same,Tmax,"[4]; PO, 10 mg/kg, mean",1.33 h
same,half-life,"[4]; PO, 10 mg/kg, mean",1.71 h
same,Antitumor effect,"[5]; 5 mg/kg, 21 days (FIG. 2)",33%
same,Antitumor effect,"[5]; 10 mg/kg, 14 days (FIG. 1)",64%
same,Antitumor effect,"[5]; 30 mg/kg, 14 days (FIG. 1)",82%
same,Antitumor effect,"[5]; 90 mg/kg, 14 days (FIG. 1)",93%
same,TMD-8 tumor growth suppression,"[5]; multiple doses, p.o., 14 days (FIG. 1)",significant TMD-8 tumor growth suppressions were dose-depended
same,AUC compared with ibrutinib,[6]; TK data,significantly higher than that of ibrutinib
same,Cmax,[6]; [20],685 ± 212 ng/mL
same,Tmax,[6]; [20],1 h
same,AUC(0-t),[6]; [20],2930 ng·h/mL
same,Cmax,[6]; [21],687 ± 123 ng/mL
same,Tmax,[6]; [21],2 h
same,AUC(0-t),[6]; [21],3730 ± 549 ng·h/mL
same,Cmax,[6]; [22],1220 ± 431 ng/mL
same,Tmax,[6]; [22],2 h
same,AUC(0-t),[6]; [22],6220 ± 3000 ng·h/mL
same,Cmax,[6]; [23],1060 ± 263 ng/mL
same,Tmax,[6]; [23],2 h
same,AUC(0-t),[6]; [23],8130 ± 1490 ng·h/mL
same,Cmax,[6]; [24],2420 ± 670 ng/mL
same,Tmax,[6]; [24],2 h
same,AUC(0-t),[6]; [24],17300 ± 2830 ng·h/mL
same,Cmax,[6]; [25],1850 ± 605 ng/mL
same,Tmax,[6]; [25],2 h
same,AUC(0-t),[6]; [25],11200 ± 5990 ng·h/mL
same,Cmax,[6]; [26],746 ng/mL
same,Tmax,[6]; [26],2 h
same,AUC(0-t),[6]; [26],3550 ng·h/mL
same,Cmax,[6]; [27],576 ± 145 ng/mL
same,Tmax,[6]; [27],2 h
same,AUC(0-t),[6]; [27],3260 ± 732 ng·h/mL
same,Cmax,[6]; [28],1240 ± 381 ng/mL
same,Tmax,[6]; [28],2 h
same,AUC(0-t),[6]; [28],6480 ± 1670 ng·h/mL
same,Cmax,[6]; [29],1470 ± 538 ng/mL
same,Tmax,[6]; [29],2 h
same,AUC(0-t),[6]; [29],9170 ± 3810 ng·h/mL
same,Cmax,[6]; [30],2700 ± 769 ng/mL
same,Tmax,[6]; [30],2 h
same,AUC(0-t),[6]; [30],16400 ± 5410 ng·h/mL
same,Cmax,[6]; [31],2460 ± 858 ng/mL
same,Tmax,[6]; [31],4 h
same,AUC(0-t),[6]; [31],22900 ± 13900 ng·h/mL
